The results in this text go back to patent US20250114357A1, “BIFUNCTIONAL PROTAC AND MOLECULAR GLUE COMPOUNDS AND METHODS OF USE THEREOF” (Biolexis Therapeutics, Inc., priority 2023, published 2025).

A word on the IC50: it is the midpoint of a concentration-inhibition curve. Read a high IC50 as weaker potency in that assay.

Structures are written as SMILES.

T1 sequence (P50750 whole entry): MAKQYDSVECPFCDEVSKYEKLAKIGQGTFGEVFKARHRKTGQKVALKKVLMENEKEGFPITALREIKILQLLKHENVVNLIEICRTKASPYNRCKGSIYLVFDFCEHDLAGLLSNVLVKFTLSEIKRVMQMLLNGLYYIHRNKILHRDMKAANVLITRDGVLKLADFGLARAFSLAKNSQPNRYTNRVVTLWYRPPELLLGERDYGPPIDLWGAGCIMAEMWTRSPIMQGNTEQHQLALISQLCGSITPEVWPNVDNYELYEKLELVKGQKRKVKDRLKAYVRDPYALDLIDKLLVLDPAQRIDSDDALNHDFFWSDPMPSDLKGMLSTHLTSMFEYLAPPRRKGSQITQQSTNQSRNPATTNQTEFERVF
T1 sequence (O60563 whole entry partner): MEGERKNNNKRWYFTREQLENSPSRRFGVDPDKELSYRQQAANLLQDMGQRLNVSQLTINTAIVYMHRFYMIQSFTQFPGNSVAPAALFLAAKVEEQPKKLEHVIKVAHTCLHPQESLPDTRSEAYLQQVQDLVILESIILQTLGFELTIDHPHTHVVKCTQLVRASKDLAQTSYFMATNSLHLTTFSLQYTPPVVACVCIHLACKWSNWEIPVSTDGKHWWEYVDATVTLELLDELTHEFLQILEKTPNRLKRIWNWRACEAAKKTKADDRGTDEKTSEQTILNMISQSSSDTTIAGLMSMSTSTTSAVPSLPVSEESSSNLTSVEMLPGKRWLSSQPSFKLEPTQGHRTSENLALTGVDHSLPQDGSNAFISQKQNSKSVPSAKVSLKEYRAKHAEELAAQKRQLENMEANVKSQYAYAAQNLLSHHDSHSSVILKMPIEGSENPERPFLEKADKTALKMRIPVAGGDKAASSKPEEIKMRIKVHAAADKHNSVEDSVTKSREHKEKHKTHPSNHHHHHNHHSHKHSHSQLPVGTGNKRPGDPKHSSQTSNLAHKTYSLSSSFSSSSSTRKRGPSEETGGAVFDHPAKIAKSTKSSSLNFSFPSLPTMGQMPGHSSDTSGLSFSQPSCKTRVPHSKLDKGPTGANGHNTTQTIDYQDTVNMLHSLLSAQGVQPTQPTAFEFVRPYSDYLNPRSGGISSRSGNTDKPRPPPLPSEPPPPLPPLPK

The assay concerns the target T1, CDK9/CycT1 (Homo sapiens, UniProt P50750).
T1 construct: purchased SignalChem
Nature of the assay: ADP-Glo Kinase Assay. It is filed as biochemical. The settings on record: Table 1; assay not given. On the procedure: ADP-Glo assay kit is purchased from Promega and the CDK9/CycT1 protein and PDKtide substrate are purchased from SignalChem. Compounds of Structure (I) are dosed in 10-dose IC50 mode in duplicate with 3-fold serial dilution starting at 100 μM. The reaction is started by pre-incubating 4 μL of protein (20 nM), 2 μL of substrate (100 μM), and 2 μL of serial diluted drug in 1× assay buffer (50 mM HEPES, 3 mM MgCl2, 3 mM MnCl2, and 1 mM DTT) for 30 minutes. After pre-incubating, 4 μL of ATP (1 μM) is added to each well and incubated for an additional 90 minutes. The ADP-Glo Reagent (10 μL) and Kinase Detection Reagent (20 μL) are added to each well and incubated as recommended by Promega. The reaction is quantified by measuring luminescence and the IC50 is calculated using GraphPad Prism software.
Background: In ADP-Glo the light output rises with the ADP produced.
On to `CC(C)c1c2cc(-c3ccnc(N[C@H]4CC[C@H](NCCCCCc5cccc6c5C(=O)N(C5CCC(=O)NC5=O)C6=O)C4)n3)ccc2nn1C` (stereo partly drawn) [Compound I-2, 2-(2,6-dioxopiperidin-3-yl)-4-(5-(((1S,3S)-3-((4-(3-isopropyl-2-methyl-2H-indazol-5-yl)pyrimidin-2-yl)amino)cyclopentyl)amino)pentyl)isoindoline-1,3-dione], for which the IC50 is 5 to 1000 nM.
Take `CC(C)c1c2cc(-c3ccnc(N[C@H]4CC[C@H](NCc5cccc6c5C(=O)N(C5CCC(=O)NC5=O)C6=O)C4)n3)ccc2nn1C` (stereo partly drawn) [Compound I-7, 2-(2,6-dioxopiperidin-3-yl)-4-((((1S,3S)-3-((4-(3-isopropyl-2-methyl-2H-indazol-5-yl)pyrimidin-2-yl)amino)cyclopentyl)amino)methyl)isoindoline-1,3-dione]: the IC50 lay within 5 to 1000 nM.
Turning to `CC(C)c1c2cc(-c3ccnc(N[C@H]4CC[C@H](NCc5cccc6c5CN(C5CCC(=O)NC5=O)C6=O)C4)n3)ccc2nn1C` (stereo partly drawn) [Compound I-8, 3-(4-((((1S,3S)-3-((4-(3-isopropyl-2-methyl-2H-indazol-5-yl)pyrimidin-2-yl)amino)cyclopentyl)amino)methyl)-1-oxoisoindolin-2-yl)piperidine-2,6-dione], the IC50 was no more than 5 nM.
Take `CC(C)c1c2cc(-c3ccnc(N[C@H]4CC[C@H](NCc5ccc(-c6ccccn6)cc5)C4)n3)cc(F)c2nn1C` [Compound I-12, (1S,3S)-N^1-(4-(7-fluoro-3-isopropyl-2-methyl-2H-indazol-5-yl)pyrimidin-2-yl)-N^3-(4-(pyridin-2-yl)benzyl)cyclopentane-1,3-diamine]: the IC50 lay in the range of 5 to 1000 nM.
The value for `CC(C)c1c2cc(-c3ccnc(N[C@H]4CC[C@H](NC(=O)N5CCN(CCCCCc6ccc7c(c6)CN(C6CCC(=O)NC6=O)C7=O)CC5)C4)n3)cc(F)c2nn1C` (stereo partly drawn) [Compound I-6, 4-(5-(2-(2,6-dioxopiperidin-3-yl)-1-oxoisoindolin-5-yl)pentyl)-N-((1S,3S)-3-((4-(7-fluoro-3-isopropyl-2-methyl-2H-indazol-5-yl)pyrimidin-2-yl)amino)cyclopentyl)piperazine-1-carboxamide] was no more than 5 nM.
Regarding `CC(C)c1c2cc(-c3ccnc(N[C@H]4CC[C@H](NCc5ccc(-c6ccccn6)cc5)C4)n3)ccc2nn1C` [Compound I-11, (1S,3S)-N^1-(4-(3-isopropyl-2-methyl-2H-indazol-5-yl)pyrimidin-2-yl)-N^3-(4-(pyridin-2-yl)benzyl)cyclopentane-1,3-diamine], the IC50 was in the range of 5 to 1000 nM.
The result for `CC(C)c1c2cc(-c3ccnc(N[C@H]4CC[C@H](NCc5cccc6c5CN(C5CCC(=O)NC5=O)C6=O)C4)n3)cc(F)c2nn1C` (stereo partly drawn) [Compound I-10, 3-(4-((((1S,3S)-3-((4-(7-fluoro-3-isopropyl-2-methyl-2H-indazol-5-yl)pyrimidin-2-yl)amino)cyclopentyl)amino)methyl)-1-oxoisoindolin-2-yl)piperidine-2,6-dione] reads no more than 5 nM; that for `CC(C)c1c2cc(-c3ccnc(N[C@H]4CC[C@H](NC(=O)N5CCN(CCCCCc6cccc7c6C(=O)N(C6CCC(=O)NC6=O)C7=O)CC5)C4)n3)ccc2nn1C` (stereo partly drawn) [Compound I-3, 4-(5-(2-(2,6-dioxopiperidin-3-yl)-1,3-dioxoisoindolin-4-yl)pentyl)-N-((1S,3S)-3-((4-(3-isopropyl-2-methyl-2H-indazol-5-yl)pyrimidin-2-yl)amino)cyclopentyl)piperazine-1-carboxamide], no more than 5 nM; that for `CC(C)c1c2cc(-c3ccnc(N[C@H]4CC[C@H](NC(=O)N5CCN(CCCCCc6cccc7c6CN(C6CCC(=O)NC6=O)C7=O)CC5)C4)n3)ccc2nn1C` (stereo partly drawn) [Compound I-4, 4-(5-(2-(2,6-dioxopiperidin-3-yl)-1-oxoisoindolin-4-yl)pentyl)-N-((1S,3S)-3-((4-(3-isopropyl-2-methyl-2H-indazol-5-yl)pyrimidin-2-yl)amino)cyclopentyl)piperazine-1-carboxamide], no more than 5 nM.
For the compound `CC(C)c1c2cc(-c3ccnc(N[C@H]4CC[C@H](NC(=O)N5CCN(CCCCCc6ccc7c(c6)C(=O)N(C6CCC(=O)NC6=O)C7=O)CC5)C4)n3)cc(F)c2nn1C` (stereo partly drawn) [Compound I-5, 4-(5-(2-(2,6-dioxopiperidin-3-yl)-1,3-dioxoisoindolin-5-yl)pentyl)-N-((1S,3S)-3-((4-(7-fluoro-3-isopropyl-2-methyl-2H-indazol-5-yl)pyrimidin-2-yl)amino)cyclopentyl)piperazine-1-carboxamide], the IC50 is no more than 5 nM.
The value for `CC(C)c1c2cc(-c3ccnc(N[C@H]4CC[C@H](NCCCCCc5cccc6c5CN(C5CCC(=O)NC5=O)C6=O)C4)n3)ccc2nn1C` (stereo partly drawn) [Compound I-1, 3-(4-(5-(((1S,3S)-3-((4-(3-isopropyl-2-methyl-2H-indazol-5-yl)pyrimidin-2-yl)amino)cyclopentyl)amino)pentyl)-1-oxoisoindolin-2-yl)piperidine-2,6-dione] was 5 to 1000 nM; that for `CC(C)c1c2cc(-c3ccnc(N[C@H]4CC[C@H](NCc5cccc6c5C(=O)N(C5CCC(=O)NC5=O)C6=O)C4)n3)cc(F)c2nn1C` (stereo partly drawn) [Compound I-9, 2-(2,6-dioxopiperidin-3-yl)-4-((((1S,3S)-3-((4-(7-fluoro-3-isopropyl-2-methyl-2H-indazol-5-yl)pyrimidin-2-yl)amino)cyclopentyl)amino)methyl)isoindoline-1,3-dione] was 5 to 1000 nM.
